Experimental data: patent publication US4178442A, “Novel cinnamoyles piperazines and homopiperazines, the method of preparing them and their application in therapeutics” (Delalande S. A., priority 1977, dated 1979)
Read-outs that look alike come from different tables or passages of the source.

What was measured:
anaesthetized dog = assay: Antiangorous activity on anaesthetized dog: consumption of oxygen in the left ventricule and cardiac effort (KATZ's index); assay type: in vivo; conditions: for inhibition in vivo at 1.25 mg/kg / inhibition in vivo at 2.5 mg/kg / inhibition in vivo at 0.625 mg/kg / inhibition in vivo at […]: Canis lupus familiaris, iv; for inhibition in vivo at […]: 1.5 mg/kg i.v. slow perfusion
In short: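 Katz index taken as mean arterial pressure multiplied by ECG (D2) heart rate, and myocardial O2 use as coronary sinus flow via modified Morawitz cannula times coronary arteriovenous O2 difference. Animals: pentobarbital-anaesthetized dogs (30 mg/kg i.v.), test compounds infused slowly intravenously.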

in vivo = conditions: iv; for mortality: read-out: Toxicity (Mortality); for LD50: read-out: Toxicity: LD50
Excerpt: *LD50 or percentage of mortality which is given between brackets

[1] = 1.25 mg/kg i.v. slow perfusion, read-out: Diminution in consumption of O2
[2] = 1.25 mg/kg i.v. slow perfusion, read-out: Diminution in the cardiac effort (IK)
[3] = 2.5 mg/kg i.v. slow perfusion, read-out: Diminution in consumption of O2
[4] = 2.5 mg/kg i.v. slow perfusion, read-out: Diminution in the cardiac effort (IK)
[5] = 0.625 mg/kg i.v. slow perfusion

Row | Compound | mortality (in vivo; 400 mg/kg i.v.) [%] | Diminution in consumption of O2: in time (anaesthetized dog; 2.5 mg/kg i.v. slow perfusion) [min] | inhibition in vivo at 2.5 mg/kg (anaesthetized dog; [3]) [%] | inhibition in vivo at 2.5 mg/kg (anaesthetized dog; [4]) [%] | Diminution in the cardiac effort (IK): in time (anaesthetized dog; 2.5 mg/kg i.v. slow perfusion) [min] | also measured
1 | CNC(=O)N(C)c1ccc(OCC(O)CN2CCN(C(=O)/C=C/c3cc(OC)c(OC)c(OC)c3)CC2)c2c1OCCO2 (stereo not shown) [771 238] | 0 | – | – | – | – | Diminution in consumption of O2: in time (anaesthetized dog; 1.25 mg/kg i.v. slow perfusion): 30 min; Diminution in the cardiac effort (IK): in time (anaesthetized dog; 1.25 mg/kg i.v. slow perfusion): 30 min; inhibition in vivo at 1.25 mg/kg (anaesthetized dog; [1]): 40%; inhibition in vivo at 1.25 mg/kg (anaesthetized dog; [2]): 38%
2 | COc1cc(/C=C/C(=O)N2CCN(CC(O)COc3ccc(OC(C)=O)c4c3OCCO4)CC2)cc(OC)c1OC (stereo not shown) [780 004] | 10 | – | – | – | – | Diminution in consumption of O2: in time (anaesthetized dog; 1.25 mg/kg i.v. slow perfusion): 30 min; Diminution in the cardiac effort (IK): in time (anaesthetized dog; 1.25 mg/kg i.v. slow perfusion): 15 min; inhibition in vivo at 1.25 mg/kg (anaesthetized dog; [1]): 22%; inhibition in vivo at 1.25 mg/kg (anaesthetized dog; [2]): 14%
3 | CNC(=O)Nc1ccc(OCCCN2CCN(C(=O)/C=C/c3cc(OC)c(OC)c(OC)c3)CC2)c2c1OCCO2 [780 040] | 30 | 15 | 59 | 9 | – | –
4 | COc1cc(/C=C/C(=O)N2CCN(CC(O)COc3ccc(NC(C)=O)c4c3CCCC4)CC2)cc(OC)c1OC (stereo not shown) [780 044] | 10 | 30 | 49 | 36 | 15 | –
5 | COc1cc(/C=C/C(=O)N2CCN(CC(O)COc3ccc(O)c4c3OCCO4)CC2)cc(OC)c1OC (stereo not shown) [780 120, 1-[3-(4-hydroxy-2,3-ethylenedioxy)phenoxy-2-hydroxy]propyl-4-(3,4,5-trimethoxy-cinnamoyl)piperazine, hydrated chlorhydrate] | – | 30 | 65 | 29 | 15 | LD50 (in vivo): 340 mg/kg
6 | COc1cc(/C=C/C(=O)N2CCN(CC(O)COc3cccc4c3OCO4)CC2)cc(OC)c1OC (stereo not shown) [780 138] | – | 45 | 46 | 19 | 30 | LD50 (in vivo): 150 mg/kg
7 | COc1cc(/C=C/C(=O)N2CCN(CC(O)COc3ccc(C(C)=O)c4c3OCO4)CC2)cc(OC)c1OC (stereo not shown) [780 308] | 10 | 45 | 49 | 37 | 45 | –
8 | COc1cc(/C=C/C(=O)N2CCN(CC(O)COc3ccc(NC(C)=O)c4c3OCCCO4)CC2)cc(OC)c1OC (stereo not shown) [780 393] | 10 | – | – | – | – | Diminution in consumption of O2: in time (anaesthetized dog; [5]): 30 min; Diminution in the cardiac effort (IK): in time (anaesthetized dog; [5]): 30 min; inhibition in vivo at 0.625 mg/kg (anaesthetized dog; 0.625 mg/kg i.v. slow perfusion, read-out: Diminution in consumption of O2): 24%; inhibition in vivo at 0.625 mg/kg (anaesthetized dog; 0.625 mg/kg i.v. slow perfusion, read-out: Diminution in the cardiac effort (IK)): 45%
9 | CNC(=O)Nc1ccc(OCC(O)CN2CCN(C(=O)/C=C/c3cc(OC)c(OC)c(OC)c3)CC2)c2c1OCO2 (stereo not shown) [780 409] | 20 | 90 | 54 | 43 | 90 | –
10 | COc1cc(/C=C/C(=O)N2CCCN(CC(O)COc3ccc(C(C)=O)cc3)CC2)cc(OC)c1OC (stereo not shown) [780 415] | – | 30 | 29 | 10 | 30 | LD50 (in vivo): 305 mg/kg
11 | Cc1cccc(C)c1NC(=O)CN1CCN(CCCC(c2ccc(F)cc2)c2ccc(F)cc2)CC1 [LIDOFLAZINE, reference compound] | – | – | – | – | – | inhibition in vivo at […] (anaesthetized dog; read-out: Diminution in consumption of O2): 48%; inhibition in vivo at […] (anaesthetized dog; read-out: Diminution in the cardiac effort (IK)): 40%; mortality (in vivo; 25 mg/kg i.v.): 50%
